Laboratory results taken from patent US10336775B2 (Asceneuron SA, priority 2014, dated 2019).

These compounds were tested against His-Tagged hOGA (human O-GlcNAcase) (Homo sapiens (Human), UniProt O60502) (assay: Human O-GlcNAcase enzyme inhibition assay (Example B01)). Settings: OGA IC50 (M), OGA enzyme inhibition assay; activity range classes defined in μM.
His-Tagged hOGA (human O-GlcNAcase), sequence (O60502 whole entry): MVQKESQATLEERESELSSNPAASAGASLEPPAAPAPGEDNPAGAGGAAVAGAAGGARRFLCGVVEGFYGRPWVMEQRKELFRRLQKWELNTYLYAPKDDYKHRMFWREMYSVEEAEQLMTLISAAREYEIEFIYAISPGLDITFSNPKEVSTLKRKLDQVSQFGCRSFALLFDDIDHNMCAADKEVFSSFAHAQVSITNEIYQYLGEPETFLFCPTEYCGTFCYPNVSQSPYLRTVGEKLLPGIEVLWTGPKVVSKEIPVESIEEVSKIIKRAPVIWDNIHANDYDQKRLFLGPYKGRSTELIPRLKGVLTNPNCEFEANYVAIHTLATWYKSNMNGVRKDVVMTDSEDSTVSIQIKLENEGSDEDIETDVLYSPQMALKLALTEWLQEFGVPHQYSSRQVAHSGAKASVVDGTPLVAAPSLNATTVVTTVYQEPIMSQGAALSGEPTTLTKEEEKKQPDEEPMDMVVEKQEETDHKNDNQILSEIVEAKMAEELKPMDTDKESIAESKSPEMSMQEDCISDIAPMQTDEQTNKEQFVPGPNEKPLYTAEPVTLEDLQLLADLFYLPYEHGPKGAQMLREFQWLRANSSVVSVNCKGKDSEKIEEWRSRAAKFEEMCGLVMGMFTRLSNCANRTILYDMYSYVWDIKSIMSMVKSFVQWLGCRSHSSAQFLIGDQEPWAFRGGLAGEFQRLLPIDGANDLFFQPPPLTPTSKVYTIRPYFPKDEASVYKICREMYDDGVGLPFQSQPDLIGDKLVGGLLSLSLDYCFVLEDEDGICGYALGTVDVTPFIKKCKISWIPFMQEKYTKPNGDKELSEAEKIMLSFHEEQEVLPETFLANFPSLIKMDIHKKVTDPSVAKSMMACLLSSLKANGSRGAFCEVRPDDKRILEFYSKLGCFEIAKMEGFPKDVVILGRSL
Format: biochemical
Work on `CC(=O)Nc1cnc(N2CCN(C(C)c3ccc4c(c3)OCO4)CC2)nc1` (single isomer, unassigned) [Example 78] yielded an IC50 of less than 5e-08 M. `CC(c1ccc2c(c1)OCO2)N1CCN(c2ncc(C(=O)N(C)C)s2)CC1` (racemic) [Example 47, 2-(4-(1-(Benzo[d](1,3)dioxol-5-yl)ethyl)piperazin-1-yl)-N,N-dimethylthiazole-5-carboxamide] was tested, and the IC50 was 5e-08 to 2e-07 M. Work on `CC(c1ccc2c(c1)OCO2)N1CCN(c2ncc(C(=O)N(C)C)s2)CC1` (single isomer, unassigned) [Example 61, (R)-2-(4-(1-(benzo[d][1,3]dioxol-5-yl)ethyl)piperazin-1-yl)-N,N-dimethylthiazole-5-carboxamide or (S)-2-(4-(1-(benzo[d][1,3]dioxol-5-yl)ethyl)piperazin-1-yl)-N,N-dimethylthiazole-5-carboxamide] yielded an IC50 of 5e-08 to 2e-07 M.

Same assay, conditions: OGA enzyme inhibition assay; activity range classes defined in μM; read-out: OGA IC50
`C[C@@H](c1ccc2c(c1)OCO2)N1CCN(c2ncc(C(C)(C)O)cn2)CC1` [Example 176, (S)-2-(2-(4-(1-(benzo[d][1,3]dioxol-5-yl)ethyl)piperazin-1-yl)pyrimidin-5-yl)propan-2-ol] was tested, and the IC50 was less than 5e-08 M. `C[C@@H](c1ccc2c(c1)OCO2)N1CCN(c2nnc(N)s2)CC1` [Example 132, (S)-5-(4-(1-(benzo[d][1,3]dioxol-5-yl)ethyl)piperazin-1-yl)-1,3,4-thiadiazol-2-amine] was tested, and the IC50 was less than 5e-08 M. Work on `CCc1cnc(N2CCN(C(C)c3ccc4nccnc4c3)CC2)nc1` (racemic) [Example 103, 6-(1-(4-(5-ethylpyrimidin-2-yl)piperazin-1-yl)ethyl)quinoxaline] yielded an IC50 of 5e-08 to 2e-07 M. In the case of `Cc1nnc(C2CCN(C(C)c3ccc4c(c3)OCO4)CC2)o1` (racemic) [Example 2, 2-(1-(1-(benzo[d][1,3]dioxol-5-yl)ethyl)piperidin-4-yl)-5-methyl-1,3,4-oxadiazole], the IC50 is reported as 2e-07 to 1e-06 M. Compound `CNC(=O)c1ccc(N2CCN([C@@H](C)c3ccc4c(c3)OCO4)CC2)nc1` [Example 186, (S)-6-(4-(1-(benzo[d][1,3]dioxol-5-yl)ethyl)piperazin-1-yl)-N-methylnicotinamide] has an IC50 of less than 5e-08 M. With `CC(=O)Nc1nnc(N2CCN(C(C)c3ccc4sc(C)nc4c3)CC2)s1` (racemic) [Example 170, N-(5-(4-(1-(2-methylbenzo[d]thiazol-5-yl)ethyl)piperazin-1-yl)-1,3,4-thiadiazol-2-yl)acetamide] the IC50 was less than 5e-08 M. `CC(=O)Nc1nnc(N2CCN(C(C)c3ccc4c(c3)OC(F)(F)O4)CC2)s1` (racemic) [Example 117] gave an IC50 of 2e-07 to 1e-06 M. `CC(=O)Nc1nnc(N2CCN(C(C)c3ccc4nsnc4c3)CC2)s1` (racemic) [Example 123, N-(5-(4-(1-(benzo[c][1,2,5]thiadiazol-5-yl)ethyl)piperazin-1-yl)-1,3,4-thiadiazol-2-yl)acetamide] showed an IC50 of less than 5e-08 M. Compound `CCNc1nnc(N2CCN([C@@H](C)c3ccc4c(c3)OCO4)CC2)s1` [Example 141, (S)-5-(4-(1-(benzo[d][1,3]dioxol-5-yl)ethyl)piperazin-1-yl)-N-ethyl-1,3,4-thiadiazol-2-amine] has an IC50 of 5e-08 to 2e-07 M. `CC(O)c1cnc(N2CCN([C@@H](C)c3ccc4c(c3)OCO4)CC2)nc1` (stereo partly drawn) [Example 168, 1-(2-(4-((S)-1-(benzo[d][1,3]dioxol-5-yl)ethyl)piperazin-1-yl)pyrimidin-5-yl)ethan-1-ol] was tested, and the IC50 was less than 5e-08 M. `CC(C)NC(=O)c1cnc(N2CCN(C(C)c3ccc4c(c3)OCO4)CC2)s1` (racemic) [Example 43, 2-(4-(1-(Benzo[d][1,3]dioxol-5-yl)ethyl)piperazin-1-yl)-N-isopropylthiazole-5-carboxamide] showed an IC50 of 5e-08 to 2e-07 M. `COc1nc(N2CCN(C(C)c3ccc4c(c3)OCCO4)CC2)ccc1Br` (racemic) [Example 199] showed an IC50 of 5e-08 to 2e-07 M. `CC(c1ccc2c(c1)OCO2)N1CCN(c2ncc(Cl)cn2)CC1` (racemic) [Example 38] showed an IC50 of 5e-08 to 2e-07 M. `C[C@@H](c1ccc2c(c1)OCO2)N1CCN(c2nc3c(s2)CN(S(C)(=O)=O)CC3)CC1` [Example 193, (S)-2-(4-(1-(benzo[d][1,3]dioxol-5-yl)ethyl)piperazin-1-yl)-5-(methylsulfonyl)-4,5,6,7-tetrahydrothiazolo[5,4-c]pyridine] showed an IC50 of less than 5e-08 M. In the case of `CC(=O)Nc1nnc(N2CCN(C(C)c3ccc4c(c3)OCC4)CC2)s1` (racemic) [Example 128, N-(5-(4-(1-(2,3-dihydrobenzofuran-6-yl)ethyl)piperazin-1-yl)-1,3,4-thiadiazol-2-yl)acetamide], the IC50 is reported as less than 5e-08 M. For “N-((2-(4-(1-(benzo[d][1,3]dioxol-5-yl)ethyl)piperazin-1-yl)thiazol-4-yl)methyl)acetamide [Example 85]”, the IC50 was less than 5e-08 M. For `C[C@@H](c1ccc2c(c1)OCO2)N1CCN(c2ncc(NC(=O)CCO)cn2)CC1` [Example 177, (S)-N-(2-(4-(1-(benzo[d][1,3]dioxol-5-yl)ethyl)piperazin-1-yl)pyrimidin-5-yl)-3-hydroxypropanamide], the IC50 was less than 5e-08 M. For `CC(=O)Nc1cnc(N2CCN(C(C)c3ccc4c(Cl)ccnc4c3)CC2)nc1` (racemic) [Example 101, N-(2-(4-(1-(4-chloroquinolin-7-yl)ethyl)piperazin-1-yl)pyrimidin-5-yl)acetamide], the IC50 was 2e-07 to 1e-06 M. For `CC(C)NC(=O)c1csc(N2CCN(C(C)c3ccc4c(c3)OCO4)CC2)n1` (racemic) [Example 32, 2-(4-(1-(Benzo[d][1,3]dioxol-5-yl)ethyl)piperazin-1-yl)-N-isopropylthiazole-4-carboxamide], the IC50 was 2e-07 to 1e-06 M. `CC(=O)Nc1cnc(N2CCN(C(C)c3ccc4scnc4c3)CC2)nc1` (racemic) [Example 116, N-(2-(4-(1-(benzo[d]thiazol-5-yl)ethyl)piperazin-1-yl)pyrimidin-5-yl)acetamide] was tested, and the IC50 was less than 5e-08 M. `CNC(=O)c1cnc(N2CCN(C(C)c3ccc4c(c3)OCCO4)CC2)s1` (racemic) [Example 109, 2-(4-(1-(2,3-dihydrobenzo[b][1,4]dioxin-6-yl)ethyl)piperazin-1-yl)-N-methylthiazole-5-carboxamide] gave an IC50 of less than 5e-08 M. For `COc1cnc(N2CCN(C(C)c3ccc4nccnc4c3)CC2)nc1` (racemic) [Example 196], the IC50 was 5e-08 to 2e-07 M. `CC(c1ccc2c(c1)OCO2)N1CCN(c2nc3ccccc3s2)CC1` (racemic) [Example 130, 2-(4-(1-(benzo[d][1,3]dioxol-5-yl)ethyl)piperazin-1-yl)benzo[d]thiazole] gave an IC50 of 2e-07 to 1e-06 M. `CC(c1ccc2c(c1)OCO2)N1CCN(c2nc(C(=O)N(C)C)cs2)CC1` (racemic) [Example 42, 2-(4-(1-(benzo[d][1,3]dioxol-5-yl)ethyl)piperazin-1-yl)-N,N-dimethylthiazole-4-carboxamide] showed an IC50 of 2e-07 to 1e-06 M. Work on `CCCC(=O)Nc1nnc(N2CCN(C(C)c3ccc4c(c3)OCO4)CC2)s1` (racemic) [Example 106, N-(5-(4-(1-(benzo[d][1,3]dioxol-5-yl)ethyl)piperazin-1-yl)-1,3,4-thiadiazol-2-yl)butyramide] yielded an IC50 of less than 5e-08 M. `CC(c1ccc2nccnc2c1)N1CCN(c2ncc(F)cn2)CC1` (racemic) [Example 172, 6-(1-(4-(5-fluoropyrimidin-2-yl)piperazin-1-yl)ethyl)quinoxaline] showed an IC50 of 5e-08 to 2e-07 M. With `Cc1cccc(N2CCN(C(C)c3ccc4c(c3)OCO4)CC2)n1` (racemic) [Example 21, 1-(1-(Benzo[d][1,3]dioxol-5-yl)ethyl)-4-(6-methylpyridin-2-yl)piperazine] the IC50 was 2e-07 to 1e-06 M. Work on `CC(=O)Nc1cnc(N2CCN(C(C)c3ccc4nonc4c3)CC2)nc1` (racemic) [Example 121, N-(2-(4-(1-(benzo[c][1,2,5]oxadiazol-5-yl)ethyl)piperazin-1-yl)pyrimidin-5-yl)acetamide] yielded an IC50 of 1e-06 to 1e-05 M. `C[C@@H](c1ccc2c(c1)OCO2)N1CCN(c2ncc(F)cn2)CC1` [Example 173, (S)-2-(4-(1-(benzo[d][1,3]dioxol-5-yl)ethyl)piperazin-1-yl)-5-fluoropyrimidine] showed an IC50 of less than 5e-08 M. With `CC(c1ccc2c(c1)OCO2)N1CCN(c2nccc(N)n2)CC1` (racemic) [Example 22, 2-(4-(1-(Benzo[d][1,3]dioxol-5-yl)ethyl)piperazin-1-yl)pyrimidin-4-amine] the IC50 was 5e-08 to 2e-07 M. For `C[C@@H](c1ccc2c(c1)OCO2)N1CCN(c2ncc(C3(O)CCCC3)cn2)CC1` [Example 181, (S)-1-(2-(4-(1-(benzo[d][1,3]dioxol-5-yl)ethyl)piperazin-1-yl)pyrimidin-5-yl)cyclopentan-1-ol], the IC50 was less than 5e-08 M. `C[C@@H](c1ccc2c(c1)OCO2)N1CCN(c2nc3c(s2)CNCC3)CC1` [Example 182, (S)-2-(4-(1-(benzo[d][1,3]dioxol-5-yl)ethyl)piperazin-1-yl)-4,5,6,7-tetrahydrothiazolo[5,4-c]pyridine] was tested, and the IC50 was less than 5e-08 M. In the case of `C[C@@H](c1ccc2c(c1)OCO2)N1CCN(c2ccc(C(C)(C)O)cn2)CC1` [Example 190, (S)-2-(6-(4-(1-(benzo[d][1,3]dioxol-5-yl)ethyl)piperazin-1-yl)pyridin-3-yl)propan-2-ol], the IC50 is reported as less than 5e-08 M. Work on `C[C@@H](c1ccc2c(c1)OCO2)N1CCN(c2ncc(C3(O)CCOC3)cn2)CC1` (stereo partly drawn) [Example 189, 3-(2-(4-((S)-1-(benzo[d][1,3]dioxol-5-yl)ethyl)piperazin-1-yl)pyrimidin-5-yl)tetrahydrofuran-3-ol] yielded an IC50 of less than 5e-08 M. Compound `Cc1cnc2cc(C(C)N3CCN(c4ncccn4)CC3)ccc2c1` (racemic) [Example 201, 3-Methyl-7-(1-(4-(pyrimidin-2-yl)piperazin-1-yl)ethyl)quinoline] has an IC50 of 1e-06 to 1e-05 M. For `C[C@@H](c1ccc2c(c1)OCO2)N1CCN(c2nc3cnccc3s2)CC1` [Example 139, (S)-2-(4-(1-(benzo[d][1,3]dioxol-5-yl)ethyl)piperazin-1-yl)thiazolo[4,5-c]pyridine], the IC50 was 5e-08 to 2e-07 M.

Same assay, conditions: measured according to Example B01
For `C[C@@H](c1ccc2c(c1)OCO2)N1CCN(c2ncc(C(C)(C)O)cn2)CC1` [Example 176, (S)-2-(2-(4-(1-(benzo[d][1,3]dioxol-5-yl)ethyl)piperazin-1-yl)pyrimidin-5-yl)propan-2-ol], the “OGA inhibitor activity (in words)” value was “very potent OGA inhibitors”. With `C[C@@H](c1ccc2c(c1)OCO2)N1CCN(c2nnc(N)s2)CC1` [Example 132, (S)-5-(4-(1-(benzo[d][1,3]dioxol-5-yl)ethyl)piperazin-1-yl)-1,3,4-thiadiazol-2-amine] the “OGA inhibitor activity (in words)” value was “very potent OGA inhibitors”. With `CC(O)c1cnc(N2CCN([C@@H](C)c3ccc4c(c3)OCO4)CC2)nc1` (stereo partly drawn) [Example 168, 1-(2-(4-((S)-1-(benzo[d][1,3]dioxol-5-yl)ethyl)piperazin-1-yl)pyrimidin-5-yl)ethan-1-ol] the “OGA inhibitor activity (in words)” value was “very potent OGA inhibitors”. For `CC(=O)Nc1nnc(N2CCN(C(C)c3ccc4c(c3)OCC4)CC2)s1` (racemic) [Example 128, N-(5-(4-(1-(2,3-dihydrobenzofuran-6-yl)ethyl)piperazin-1-yl)-1,3,4-thiadiazol-2-yl)acetamide], the “OGA inhibitor activity (in words)” value was “very potent OGA inhibitors”. For `CNC(=O)c1csc(N2CCN(C(C)c3ccc4c(c3)OCO4)CC2)n1` (single isomer, unassigned) [Example 56], the “OGA inhibitor activity (in words)” value was “very potent OGA inhibitors”. In the case of `CC(=O)Nc1cnc(N2CCN(C(C)c3ccc4scnc4c3)CC2)nc1` (racemic) [Example 116, N-(2-(4-(1-(benzo[d]thiazol-5-yl)ethyl)piperazin-1-yl)pyrimidin-5-yl)acetamide], the “OGA inhibitor activity (in words)” value is reported as “very potent OGA inhibitors”. With `C[C@@H](c1ccc2c(c1)OCO2)N1CCN(c2ncc(F)cn2)CC1` [Example 173, (S)-2-(4-(1-(benzo[d][1,3]dioxol-5-yl)ethyl)piperazin-1-yl)-5-fluoropyrimidine] the “OGA inhibitor activity (in words)” value was “very potent OGA inhibitors”. For `C[C@@H](c1ccc2c(c1)OCO2)N1CCN(c2ncc(C3(O)CCCC3)cn2)CC1` [Example 181, (S)-1-(2-(4-(1-(benzo[d][1,3]dioxol-5-yl)ethyl)piperazin-1-yl)pyrimidin-5-yl)cyclopentan-1-ol], the “OGA inhibitor activity (in words)” value was “very potent OGA inhibitors”. For `C[C@@H](c1ccc2c(c1)OCO2)N1CCN(c2nc3c(s2)CNCC3)CC1` [Example 182, (S)-2-(4-(1-(benzo[d][1,3]dioxol-5-yl)ethyl)piperazin-1-yl)-4,5,6,7-tetrahydrothiazolo[5,4-c]pyridine], the “OGA inhibitor activity (in words)” value was “very potent OGA inhibitors”.
